The subject of series [1] is guinea pig main bronchi. As to the kind of experiment: Bronchial smooth muscle contraction in vitro (isolated bronchial rings, isometric tension).
Protocol: Effect on bronchial smooth muscle contraction in vitro. To study the effect of DHEA on bronchial smooth muscle in vitro, male Hartley guinea-pigs (Charles River Laboratories, Inc., Wilmington, MA) were anaesthetized with sodium pentobarbital (pentobarbital sodium (Abbott Laboratories) (200 mg/kg intraperitoneally). Then trachea and lungs were quickly removed and immersed in oxygenated Krebs-Henseleit solution (K-H) containing (mM) : 115 NaCl, 25 NaHCO3, 1.38 NaH2PO4, 2.5 KCl, 2.46 MgSO4, 1.9 CaCl2, and 5.56 dextrose, aerated with 95% O2 and 5% CO2.
The main bronchi were dissected free of loose connective tissue, under a stereo-microscope (Olympus SZH10), and bronchial rings were obtained and mounted in double jacketed organ baths filled with K-H at 37°C and continuously aerated with a 95% O2 and 5% CO2 gas mixture, which produced a pH of 7.4. The bronchial rings were connected to force displacement transducers (Grass FTO3) for continuous recording of isometric tension on paper polygraph (Gould RS3800) and allowed to equilibrate for 90 minutes. After the equilibration period 1mM acetylcholine was administered and the response monitored.
Bronchial rings were partially contracted with 3·10^-2 M KCl or 10^-5 M acetylcholine (ACh) , then the effect of DHEA was studies by increasing cumulatively its concentration at log intervals from 10^-3 to 10^-4 M and measuring the changes produced in active tension.
A concentration of 3 x 10^-2 M KCl was chosen on the basis of preliminary experiments, in which from concentration-response curves to KCl (10^-2 - 10^-1 M) it was determined that the concentration of KCl eliciting 50% of the maximum response (KCl-EC50) in the experimental set up. […] Similarly, 10^-5 M acetylcholine (ACh) was chosen as the concentration of ACh eliciting 50% of the maximum response.
Since DHEA was dissolved in dimethyl sulfoxide (DMSO), four additional rings were contracted with 3 x 10^-2 M KCl (n=5) or 10^-5 M ACh (n=5) to determine whether this vehicle produced any alteration of the active force. […] The maximum final concentration of DMSO in the organ bath was 0.15%.
Three of the strips used to study DHEA were rinsed with fresh K-H at the end of the experiment, treated with 1 mM acetylcholine, and the response monitored.
In a second set of experiments either a single dose of 10^-5 M ACh was administered or a concentration-response curve to ACh was performed in the presence or absence of 10^-4 M DHEA (administered 15 minutes before ACh). The single dose of ACh was used to measure the rate of tension development, while the concentration-response study was used to evaluate whether DHEA affected sensitivity to ACh.
The test system of series [2] is airway smooth muscle cells. As to the kind of experiment: Cytotoxicity: lactate dehydrogenase activity in cell supernatants. The series is classed as cell-based, rat. Particulars: confluent cells incubated 24 hours; compared with DMSO vehicle (Figure 4B). The method, then:
To study the effect of DHEA and 16α-BrEA on activation of AP-1, a secondary response important in cellular growth and proliferation (Angel and Karin, (1991), supra) confluent monolayers of airway smooth muscle in 75-cm^2 Petri dishes were growth arrested for 24 hours in 0.5% FBS and DMEM and pretreated 2 hours with DHEA, 16α-BrEA or DMSO vehicle. Cells were then stimulated with 10% FBS in DMEM for 6 hours, nuclear protein was harvested, and electrophoretic mobility shift assays were performed as described below to determine if treatment with DHEA and 16α-BrEA impaired DNA binding of AP-1. Measurement of Cytotoxicity and Apoptosis. To assess for cytotoxicity, DHEA or 16α-BrEA were added to wells of airway smooth muscle cells previously grown to confluence in DMEM and 10% FBS. After 24 hours, media was microfuged 5 minutes and supernatant was assayed for lactate dehydrogenase activity using a commercially available assay (DG-1340K from Sigma). Cells were washed twice in DPBS and exposed to trypan blue dye (0.04% in Hanks' balanced salt solution). Cell counts were performed in five random fields using a 0.01-cm^2 ocular grid to quantitate the average number of damaged or dead cells that accumulated dye. […]

Series [3] concerns p21^ras. As to the kind of experiment: Immunoblot of p21ras in membranes of cultured airway smooth muscle cells. The series is classed as cell-based, rat. Particulars: 10% FBS + 10 µM, 24 hours (Figure 6B). On the procedure:
To determine if 16α-bromoepiandrosterone reduced cellular proliferation by interfering with mevalonic acid synthesis, cells were stimulated with FBS and grown in the presence or absence of 16α-BrEA, with or without addition of 6 mM DL-mevalonic acid lactone to growth medium. After 36 hours growth was measured by MTT reduction. To evaluate whether isoprenylation and membrane localization of Ras was impaired, confluent cells on 75-cm^2 Petri dishes were growth arrested for 24 hours in 0.5% FBS and DMEM with and without 16α-BrEA or DMSO vehicle. Some dishes were then stimulated 30 minutes with 10% FBS in DMEM. Cells were lysed, membranes were isolated and immunoblotting was performed as described below to determine if treatment with DHEA and 16α-BrEA depleted p21^ras.
To determine if DHEA or its analogs induced programmed cell death, confluent cultures in 6 well plastic plates were treated with 50 or 250 µM DHEA, 10 or 50 µM 16α-BrEA, or vehicle (25 µl DMSO). After 2 hours cells were washed twice with DPBS and scraped on ice into 1.5 ml microfuge tubes and centrifuged 250 g for 5 minutes at 4°C. […] The linear increase in absorbance at 340 nm was monitored at 25°C for 300 seconds. Activity was expressed as units/mg protein, where 1.0 unit will oxidase 1.0 µmole of G6P to 6-phospho-D-gluconate per min in the presence of NADP. Protein was measured using the BCA protein assay (Rockford, IL). […]

For series [4], the system named is BEAS-2B cells. As to the kind of experiment: Interleukin-8 secretion by cultured human respiratory epithelium (ELISA). The class given is cell-based. Particulars: 1 hr pretreatment. On the procedure:
J. Physiol. […] J. Physiol. […] Statistical Analysis. […] Significance was assumed at p < 0.05.
After 24 hours (for TNF stimulated cells) or 6 hours (for ROFA stimulated cells) media was collected and centrifuged to remove debris. […] Results are means ± standard errors of 4-6 experiments per treatment group. DMSO vehicle, as an antioxidant, reduces IL-8 secretion (a known effect) but BrEA inhibits much more profoundly.
For orientation: In an ELISA, binding on a coated surface is turned into a signal by an enzyme label.

For `C[C@]12CC[C@H](O)CC1=CC[C@@H]1[C@@H]2CC[C@]2(C)C(=O)CC[C@@H]12` [DHEA, dehydroepiandrosterone], the “rate of tension development in response to 10^-5 ACh” value in series [1] (10^-4 M DHEA administered 15 minutes before ACh, 2.27±0.82 without DHEA) is 1.85±0.85. The “relaxation of the ACh-induced contraction” value in series [1] (10^-4 M DHEA, bronchi partially contracted with 10^-5 M ACh, n=5) is 37.98±4.76%. The EC50 in series [1] (Cavia porcellus, read-out: concentration of DHEA which produced 50% relaxation of the KCl-induced contraction) turned out to be 21.6 µM. Moreover, the “relaxation of the KCl-induced contraction” value in series [1] (maximum concentration of DHEA, bronchi partially contracted with 3 x 10^-2 M KCl, after subtraction of the reduction of force due to time-vehicle, n=6) was 76.28±6.96%. The “smooth muscle functionality (response to 1 mM acetylcholine after rinsing)” value in series [1] (three strips rinsed with fresh K-H at the end of the DHEA experiment) is “not altered”.
As to `C[C@]12CC[C@H](O)C[C@@H]1CC[C@@H]1[C@@H]2CC[C@]2(C)C(=O)[C@H](Br)C[C@@H]12` [16α-BrEA, 16α-bromoepiandrosterone], the “LDH activity in supernatant” value in series [2] is “does not increase LDH activity”. The “p21^ras in membranes of cultured airway smooth muscle cells” value in series [3] is given as “does not deplete p21^ras”. The IL-8 in series [4] (ROFA Stimulated BEAS Cells (ROFA 50 µg/ml, 6 hr), 25 µM, ROFA + DMSO 410 ± 18) is 123 ± 5 pg/mL; in series [4] (TNF Stimulated BEAS Cells (TNFα 40 ng/ml, 24 hr), 2 µM, TNF + DMSO 93 ± 14), 104 ± 31 pg/mL; in series [4] (TNF Stimulated BEAS Cells (TNFα 40 ng/ml, 24 hr), 10 µM, TNF + DMSO 93 ± 14), 52 ± 18 pg/mL; in series [4] (TNF Stimulated BEAS Cells (TNFα 40 ng/ml, 24 hr), 50 µM, TNF + DMSO 93 ± 14), 27 ± 2 pg/mL.

The values above are taken from patent EP0934745B1, “Use of androsterone derivatives for inhibiting DNA binding of ap-1 and airway smooth muscle proliferation” (CHARLOTTE-MECKLENBURG HOSPITAL doing business as Carolinas …, priority 1998, dated 1999).
